According to publication PMC12191924, “A new naphthalene-based fluorogenic substrate for cytochrome P450 4A11” (Biochemical Journal, 2025):
Read-outs that look alike come from different tables or passages of the source.

Key:
[1] = target: T1, pooled human liver microsome (HLM) preparations (Homo sapiens, UniProt Q02928); assay: Inhibition of MONACRA demethylation in pooled HLM preparations; assay type: biochemical; conditions: 150 µM MONACRA
T1 sequence (Q02928 5-519): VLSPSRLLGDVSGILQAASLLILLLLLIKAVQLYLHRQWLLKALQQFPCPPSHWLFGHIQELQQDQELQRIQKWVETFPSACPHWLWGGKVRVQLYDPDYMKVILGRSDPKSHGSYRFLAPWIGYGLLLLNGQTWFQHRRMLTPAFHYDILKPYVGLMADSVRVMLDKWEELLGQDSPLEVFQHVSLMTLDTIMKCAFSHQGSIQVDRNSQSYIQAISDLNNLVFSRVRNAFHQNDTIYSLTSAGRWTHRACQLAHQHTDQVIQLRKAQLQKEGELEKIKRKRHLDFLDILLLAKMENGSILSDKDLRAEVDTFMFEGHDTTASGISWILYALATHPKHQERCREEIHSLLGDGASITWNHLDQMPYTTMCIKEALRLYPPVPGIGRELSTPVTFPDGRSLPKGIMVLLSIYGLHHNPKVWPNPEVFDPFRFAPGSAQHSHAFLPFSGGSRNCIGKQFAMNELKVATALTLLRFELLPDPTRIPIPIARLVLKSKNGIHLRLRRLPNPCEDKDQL
Text: (§1) To probe the role of CYP4A11 and CYP1A2 in MONACRA metabolism by HLM, we employed inhibitory analysis with the use of epalrestat as a specific inhibitor of CYP4A11 [22] and fluvoxamine as a CYP1A2 inhibitor [37]. We explored the effect of the inhibitors on the activity of recombinant CYP1A2 and CYP4A11, as well as the activity of six different preparations of HLM (preparation X347 was not available at the time of the study).
(§2) Figure 12: Effect of epalrestat (A) and fluvoxamine (B) on 3-(6-methoxynaphthalen-2-yl)acrylic acid (MONACRA) demethylation by recombinant CYP1A2 (black) and CYP4A11 (red) and three pooled human liver microsome (HLM) preparations: X263 (green), DNJ (blue), and WGP (brown). Solid lines represent the approximation of the datasets by eqn 1 (in the instances of pure inhibition) or a combination of two hyperbolic equations (in the cases of activation or combined inhibition and activation). All experiments were carried out at 150 µM MONACRA concentration. The datasets shown in the graphs represent the averages of the results of four (fluvoxamine) or two (epalrestat) individual experiments.
This study used preparations of pooled HLMs from 50, 150, or 200 donors (mixed gender). The preparations CDN, DNJ, and WGP were INVITROCYP 150-Donor Human Liver Microsomes obtained from BioIVT Corporation (Westbury, NY). Lot EGW is INVITROCYP M-Class 50-Donor HLM procured from the same company. Lots 1,910,096 and 1,210,347 were XTreme 200 Mixed Gender HLM (200 donors) purchased from XenoTech LLC (Kansas City, KS), currently a part of BioIVT. Lot 2,110,263 corresponds to mixed gender HLM from 50 donors from the same company. These lots are referred to herein as X096, X347, and X263, respectively. The supplier of the HLM preparations used in our studies, BioIVT Corporation, has declared to adhere to the regulations of the Department of Health and Human Services for the protection of human subjects (45 CFR §46.116 and §46.117) and Good Clinical Practice, (ICH E6) in obtaining the samples of human tissues used for producing the preparations of human subcellular fractions available from these companies.
(§3) Inhibition of MONACRA metabolism by epalrestat and fluvoxamine was studied using the high-throughput assay described above. The substrate concentration was kept constant at 150 µM. Each column of the well plate comprised eight wells with different concentrations of inhibitor complemented with two wells with no inhibitor added (100% activity samples) and two wells with no inhibitor and no NADPH added (‘blank’ samples). […] The fractional inhibition at each inhibitor concentration was determined from the ratio of the reaction rate in the presence of an inhibitor to the rate observed at no inhibitor added. The resulting dependence of the fractional inhibition on the inhibitor concentration was fitted to a four-parameter logistic equation (Hill equation):
(§4) (1) FI=v0−vi/v0=Amax[I]^N/IC50+[I]^N
In this equation, F I and vi are the fractional inhibition and the reaction velocity observed at inhibitor concentration [I], v0 is the reaction rate at no inhibitor added, and A max is the maximal amplitude of inhibition. IC 50 is the concentration of inhibitor at which the inhibition reaches 50% of its maximal amplitude (A max), and N is the Hill coefficient.

CYP4A11 = target: T2, CYP4A11 (Homo sapiens, UniProt Q02928); assay: Inhibition of MONACRA demethylation by recombinant CYP4A11; assay type: biochemical; design: purchased Gentest (Huntsville, AL), now a part of Discovery Life Sciences lot 2402280; host or cells: insect cells, recombinant baculovirus; conditions: recombinant CYP4A11 Supersomes; 150 µM MONACRA
T2 sequence (Q02928 5-519): T1 sequence (Q02928 5-519)
Text: as §1, §2
as §3, with “The” for “The fractional inhibition at each inhibitor concentration was determined from the ratio of the reaction rate in the presence of an inhibitor to the rate observed at no inhibitor added. The”
as §4
IC 50 is the concentration of inhibitor at which the inhibition reaches 50% of its maximal amplitude (A max), and N is the Hill coefficient.

[2] = substrate: COc1ccc2cc(C=CC(=O)O)ccc2c1; assay: MONACRA demethylation by recombinant CYP4A11 in Supersomes, high-throughput fluorimetric assay; assay type: biochemical, human; conditions: other: CYP4A11 Supersomes, Michaelis–Menten fit, 20 min at 30°C, ± = confidence interval P=0.05
Protocol: Based on these observations, we developed a high-throughput automated assay applicable for studying SSPs of MONACRA metabolism by microsomal P450 enzymes. In this procedure, the incubation mixtures containing an NADPH-generating system and various substrate concentrations are placed in a multiwell plate and preincubated at 30°C in a thermostated shaker. The reaction is started by adding microsomal suspension to the final concentration of 0.3–1 mg/ml of microsomal protein or 0.02–0.1 µM of recombinant P450 enzymes in Supersomes. Following the incubation for 20 min at 30°C, the reaction is quenched by adding trichloroacetic acid (final concentration […]). After supplementing the wells with Na-glycine buffer (pH 10.4, final concentration 2.1 M), the plates are subjected to scanning the fluorescence spectra with excitation at 375 nm. This assay, which is described in detail in Materials and Methods, allows reliable detection of the concentrations of HONACRA as low as 0.1 µM.
We used the high-throughput activity assay described above to probe MONACRA metabolism by 16 human microsomal P450 enzymes, namely CYP1A2, CYP2A6, CYP2B6, CYP2C8, CYP2C9, CYP2C19, CYP2D6, CYP2E1, CYP2J2, CYP3A4, CYP3A5, CYP4A11, CYP4F2, CYP4F3A, CYP4F3B, and CYP4F12. […]

[3] = all studied HLM samples (six preparations)

`CC(/C=C1\SC(=S)N(CC(=O)O)C1=O)=C\c1ccccc1` [epalrestat] was tested. Which “Inhibition (amplitude)” value ([1]; HLM sample CDN) did it give?
The value was 99.7±0.6%.

And the IC50 ([1]; HLM sample CDN, unit not given (µM))?
The IC50 was 1.48 ± 0.21 µM.

What about the “Inhibition (amplitude)” value ([1]; HLM sample DNJ) of the same molecule?
Its value is 93.0±2.3%.

What about the IC50 ([1]; HLM sample DNJ, unit not given (µM)) of the same molecule?
Its IC50 is 2.02 ± 1.7 µM.

And the “Inhibition (amplitude)” value ([1]; HLM sample EGW)?
The value was 99.8±0.4%.

And the IC50 ([1]; HLM sample EGW, unit not given (µM))?
Its IC50 is 2.15 ± 0.52 µM.

What about the “Inhibition (amplitude)” value ([1]; HLM sample WGP) of the same molecule?
The value was 97.1±5.7%.

And the IC50 ([1]; HLM sample WGP, unit not given (µM))?
Its IC50 is 2.14 ± 0.94 µM.

And the “Inhibition (amplitude)” value ([1]; HLM sample X096)?
The value was 93.9±0.7%.

And the IC50 ([1]; HLM sample X096, unit not given (µM))?
Its IC50 is 5.36 ± 0.13 µM.

And the “Inhibition (amplitude)” value ([1]; HLM sample X263)?
The value was 100.0%.

And the IC50 ([1]; HLM sample X263, unit not given (µM))?
Its IC50 is 5.09 ± 1.04 µM.

And the IC50 [1, 3]?
The IC50 was 3 ± 1.4 µM.

What about the amplitude of inhibition [1, 3] of the same molecule?
The amplitude of inhibition was 97.2±2.5.

What about the IC50 (CYP4A11) of the same molecule?
Its IC50 is 1300 nM.

What about the “effect on MONACRA demethylation by CYP4A11” value (CYP4A11) of the same molecule?
Its value is “complete inhibition”.

Which results are given for `COCCCC/C(=N\OCCN)c1ccc(C(F)(F)F)cc1` [fluvoxamine]?
amplitude of inhibition ([1]; HLM preparation DNJ): 69%; IC50 ([1]; HLM preparation DNJ, read-out: IC 50): 14 µM; effect on MONACRA metabolism in HLM ([1]; HLM preparations CDN, WGP and X096): combination of an inhibitory effect at lower concentrations with an activation that manifests itself as the concentration increases; effect on MONACRA metabolism in HLM ([1]; HLM preparations EGW and X263): activation similar to that observed in CYP4A11 Supersomes; effect on MONACRA demethylation by CYP4A11 (CYP4A11): pronounced activation

B1: CYP4A11 (Homo sapiens) (protein)
chain: T1 sequence (Q02928 5-519)
notes: purchased Gentest (Huntsville, AL), now a part of Discovery Life Sciences lot 2402280; host or cells: insect cells, recombinant baculovirus
With B1 as the molecule, how does the Km [2] read?
The Km was 189 ± 37 µM.

What about the kcat [2] of the same molecule?
Its kcat is 1.12 ± 0.3 s⁻¹.
